Results on eight compounds are retold here after PubChem BioAssay (NCI).

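The compound was tested at five concentrations on cells cultured in 96-well plates, with a 48-hour exposure period. TGI: concentration producing complete growth inhibition.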 A value given as a limit tells only on which side of the number the result lay.

Among the test systems are PC-3 prostate; DU-145 prostate; NCI-H23 lung; UACC-257 melanoma; SW-620 colon; SN12C renal; HL-60(TB) leukemia; OVCAR-3 ovarian; SK-MEL-5 melanoma; HCT-15 colon; HT29 colon; SK-MEL-2 melanoma; M14 melanoma; IGROV1 ovarian; ACHN renal; SK-OV-3 ovarian; NCI-H522 lung; LOX IMVI melanoma; HOP-92 NSCLC; SF-539 CNS.
What all share (assay): DTP human tumour cell line panel, 48 h

In the case of `CC(C(O)Cc1ccccc1)N(C)N=Nc1ccc([N+](=O)[O-])cc1` (stereo not given), the TGI (as a rule, the concentration at which net growth stops) in the assay with PC-3 prostate turned out to be 40.5 µM; in the assay on DU-145 prostate it was 85.5 µM; in the assay on NCI-H23 lung, 48.1 µM; with UACC-257 melanoma, 45.4 µM; in the assay on SW-620 colon, 60.6 µM; with SN12C renal, 44.9 µM. Also, the TGI is greater than 100 µM with HL-60(TB) leukemia; 36.3 µM in the assay on OVCAR-3 ovarian; 34.7 µM in the assay with SK-MEL-5 melanoma; 61 µM with HCT-15 colon; 37.2 µM with HT29 colon; 40.6 µM in the assay with SK-MEL-2 melanoma. Moreover, the TGI in the assay with M14 melanoma came to 33.1 µM; in the assay on IGROV1 ovarian, 43.4 µM; in the assay with ACHN renal, 77 µM; with SK-OV-3 ovarian, 63.9 µM.
`Cc1cc(S(=O)(=O)Nc2nc3cc(-c4ccc(Cl)cc4)sc3c(=O)n2N)c(S)cc1Cl`: the TGI in the assay on PC-3 prostate, in the assay with DU-145 prostate, with NCI-H23 lung, in the assay with UACC-257 melanoma, in the assay on SW-620 colon and in the assay with SN12C renal was greater than 100 µM in each case. In addition, the TGI with NCI-H522 lung, in the assay with OVCAR-3 ovarian, in the assay on SK-MEL-5 melanoma, in the assay with HCT-15 colon, in the assay with LOX IMVI melanoma and in the assay with HT29 colon was greater than 100 µM each time. Further, the TGI was greater than 100 µM with SK-MEL-2 melanoma; greater than 100 µM in the assay on M14 melanoma; greater than 100 µM in the assay with IGROV1 ovarian; greater than 100 µM in the assay on HOP-92 NSCLC; 98.7 µM with ACHN renal; greater than 100 µM in the assay on SK-OV-3 ovarian.
For the compound `S=C(Nc1ccc2c(c1)oc1ccccc12)c1cccnc1`, the TGI was greater than 100 µM with PC-3 prostate; greater than 100 µM with DU-145 prostate; greater than 100 µM with NCI-H23 lung; greater than 100 µM in the assay with SW-620 colon; greater than 100 µM in the assay on SN12C renal; 64 µM with NCI-H522 lung. In addition, the total growth inhibition concentration (TGI) in the assay on OVCAR-3 ovarian is 67.3 µM; in the assay with SK-MEL-5 melanoma, greater than 100 µM; in the assay with HCT-15 colon it was greater than 100 µM; with LOX IMVI melanoma, greater than 100 µM; in the assay with HT29 colon, greater than 100 µM; in the assay on SK-MEL-2 melanoma, greater than 100 µM. In addition, the TGI in the assay on M14 melanoma is greater than 100 µM; in the assay with IGROV1 ovarian, greater than 100 µM; with HOP-92 NSCLC, greater than 100 µM; in the assay with ACHN renal, greater than 100 µM; in the assay with SK-OV-3 ovarian, 40.7 µM.
For `CN1[C@@H]2C[C@@H](OC(=O)[C@H](CO)c3ccccc3)C[C@H]1[C@@H]1O[C@@H]12`, the TGI with PC-3 prostate, with DU-145 prostate, in the assay on NCI-H23 lung, in the assay on UACC-257 melanoma, in the assay with SW-620 colon and with SN12C renal was greater than 100 µM each time. In addition, the TGI in the assay on NCI-H522 lung, in the assay on OVCAR-3 ovarian, in the assay with SK-MEL-5 melanoma, in the assay with HCT-15 colon, in the assay on LOX IMVI melanoma and in the assay with HT29 colon was greater than 100 µM each time. For the same compound, the total growth inhibition concentration (TGI) in the assay on SK-MEL-2 melanoma, in the assay with M14 melanoma, in the assay with IGROV1 ovarian, in the assay on HOP-92 NSCLC, in the assay with ACHN renal and with SK-OV-3 ovarian was greater than 100 µM throughout.
As for `Cn1c(COC(=O)Nc2ccccc2)c(COC(=O)Nc2ccccc2)c2ccc3cc(Cl)c(Cl)cc3c21`, the TGI with PC-3 prostate was 20.4 µM; with DU-145 prostate, 31 µM; in the assay on NCI-H23 lung, greater than 75 µM; in the assay with UACC-257 melanoma it was 21.6 µM; with SW-620 colon, greater than 75 µM; in the assay on SN12C renal it was 16.4 µM. Moreover, the TGI in the assay with HL-60(TB) leukemia worked out at 10.4 µM; with OVCAR-3 ovarian, 21.6 µM; in the assay with SK-MEL-5 melanoma, 16.1 µM; in the assay on HCT-15 colon, 15 µM; in the assay with LOX IMVI melanoma it was 13.5 µM; in the assay with HT29 colon it was 23.6 µM. Further, the TGI in the assay on SK-MEL-2 melanoma is 17.9 µM; with M14 melanoma, 19.6 µM; in the assay with IGROV1 ovarian it was 23.5 µM; with SF-539 CNS, 44.6 µM; with HOP-92 NSCLC, 7.54 µM; in the assay with ACHN renal it was 29 µM. In addition, in the assay with SK-OV-3 ovarian, the TGI was greater than 75 µM.
In the case of `COC(=O)C1=C(C)NC(C)=C(C(=O)OC)C1c1nc2sccn2c1[N+](=O)[O-]`, the concentration for total growth inhibition (TGI) with PC-3 prostate, in the assay with DU-145 prostate, in the assay with NCI-H23 lung, in the assay on UACC-257 melanoma, in the assay with SW-620 colon and with SN12C renal was greater than 100 µM throughout. In addition, the concentration for total growth inhibition (TGI) in the assay on HL-60(TB) leukemia, with OVCAR-3 ovarian, in the assay with SK-MEL-5 melanoma, in the assay on HCT-15 colon, in the assay on LOX IMVI melanoma and in the assay on SK-MEL-2 melanoma was greater than 100 µM in each case. Besides, the TGI in the assay with M14 melanoma, in the assay with SF-539 CNS, with HOP-92 NSCLC, in the assay on ACHN renal and in the assay with SK-OV-3 ovarian was greater than 100 µM each time.
Take `Nc1[nH]nc2nc3ccc(C(F)(F)F)cc3nc12`: the TGI is greater than 100 µM in the assay on PC-3 prostate; 36.8 µM in the assay on DU-145 prostate; 57.2 µM with NCI-H23 lung; 45.4 µM with UACC-257 melanoma; 33.4 µM in the assay with SW-620 colon; greater than 100 µM in the assay with SN12C renal. Moreover, the TGI in the assay with NCI-H522 lung is 38.8 µM; in the assay with SK-MEL-5 melanoma, greater than 100 µM; in the assay on HCT-15 colon, greater than 100 µM; in the assay with LOX IMVI melanoma, 50.8 µM; in the assay on HT29 colon it was greater than 100 µM; with SK-MEL-2 melanoma, 84.3 µM. Also, the TGI in the assay on M14 melanoma was greater than 100 µM; with IGROV1 ovarian, 72.2 µM; in the assay with HOP-92 NSCLC it was 78 µM; in the assay on ACHN renal, greater than 100 µM; in the assay with SK-OV-3 ovarian it was 52.7 µM.
`O=C1/C(=C/c2ccc(Cl)cc2)CSc2ccccc21`: the TGI with PC-3 prostate is 44.5 µM; in the assay on DU-145 prostate, greater than 100 µM; with NCI-H23 lung, 45.1 µM; in the assay on UACC-257 melanoma, 37.4 µM; in the assay on SW-620 colon it was greater than 100 µM; in the assay with SN12C renal it was 43.4 µM. Also, the TGI was 64.6 µM with HL-60(TB) leukemia; 49.1 µM with OVCAR-3 ovarian; 46 µM in the assay on SK-MEL-5 melanoma; greater than 100 µM with HCT-15 colon; 6.21 µM in the assay with LOX IMVI melanoma; 49.6 µM in the assay on HT29 colon. Further, the TGI in the assay on SK-MEL-2 melanoma is 41.8 µM; in the assay on M14 melanoma, greater than 100 µM; with IGROV1 ovarian, 66.4 µM; with SF-539 CNS, 35.7 µM; with HOP-92 NSCLC, 90.3 µM; in the assay with SK-OV-3 ovarian, greater than 100 µM.
